From US10179771B2 (GALAPAGOS NV, priority 2014, dated 2019)

Assays:
[1] = target: T1, Recombinant human JAK2 catalytic domain (Homo sapiens, UniProt O60674); assay: JAK2 inhibition assay (polyGT substrate / Ulight-JAK1 peptide assay); format: biochemical
T1 construct: Recombinant human JAK2 catalytic domain (amino acids 808-1132; catalog number PV4210); GST; purchased Invitrogen PV4210
Experimental: Recombinant human JAK2 catalytic domain (amino acids 808-1132; catalog number PV4210) was purchased from Invitrogen. 0.025 mU of JAK2 is incubated with […] polyGT substrate (Sigma catalog number P0275) in kinase reaction buffer (5 mM MOPS pH 7.5, 9 mM MgAc, 0.3 mM EDTA, 0.06% Brij and 0.6 mM DTT, 1 μM non-radioactive ATP, 0.25 μCi ^33P-gamma-ATP (GE Healthcare, catalog number AH9968) final concentrations) with or without 5 μL containing test compound or vehicle (DMSO, 1% final concentration), in a total volume of 25 μL, in a polypropylene 96-well plate (Greiner, V-bottom). After 90 min at 30° C., reactions are stopped by adding of 25 μL/well of 150 mM phosphoric acid. All of the terminated kinase reaction is transferred to prewashed (75 mM phosphoric acid) 96 well filter plates (Perkin Elmer catalog number 6005177) using a cell harvester (Perkin Elmer). Plates are washed 6 times with 300 μL per well of a 75 mM phosphoric acid solution and the bottom of the plates is sealed. 40 μL/well of Microscint-20 is added, the top of the plates is sealed and readout is performed using the Topcount (Perkin Elmer). Kinase activity is calculated by subtracting counts per min (cpm) obtained in the presence of a positive control inhibitor (10 μM staurosporine) from cpm obtained in the presence of vehicle. The ability of a test compound to inhibit this activity is determined as:
(§1) [formula] • RFU test compound=RFU determined for sample with test compound present • RFU control=RFU determined for sample with positive control inhibitor • RFU vehicle=RFU determined in the presence of vehicle
Dose dilution series are prepared for the compounds enabling the testing of dose-response effects in the JAK2 assay and the calculation of the IC50 for each compound. Each compound is routinely tested at concentration of 20 μM followed by a 1/3 serial dilution, 8 points (20 μM-6.67 μM-2.22 μM-740 nM-247 nM-82 nM-27 nM-9 nM) in a final concentration of 1% DMSO. When potency of compound series increased, more dilutions are prepared and/or the top concentration is lowered (e.g. 5 μM, 1 μM).
Recombinant human JAK2 (catalytic domain, amino acids 866-1154; catalog number PV4210) was purchased from Invitrogen. 0.0125 mU of JAK2 was incubated with 25 nM Ulight-JAK1 (tyr1023) peptide (Perkin Elmer catalog number TRF0121) in kinase reaction buffer (25 mM HEPES pH7.0, 0.01% Triton X-100, 7.5 mM MgCl2, 2 mM DTT, 7.5 μM ATP) with or without 4 μL containing test compound or vehicle (DMSO, 1% final concentration), in a total volume of 20 μL, in a white 384 Opti plate (Perkin Elmer, catalog number 6007290). After 60 min at room temperature, reactions were stopped by adding 20 μL/well of detection mixture (1× detection buffer (Perkin Elmer, catalog number CR97-100C), 0.5 nM Europium-anti-phosphotyrosine (PT66) (Perkin Elmer, catalog number AD0068), 10 mM EDTA). Readout is performed using the Envision with excitation at 320 nm and measuring emission at 615 nm (Perkin Elmer). Kinase activity was calculated by subtracting relative fluorescence units (RFU) obtained in the presence of a positive control inhibitor (10 μM staurosporine) from RFU obtained in the presence of vehicle. The ability of a test compound to inhibit this activity was determined as: Percentage inhibition=((RFU determined for sample with test compound present−RFU determined for sample with positive control inhibitor) divided by (RFU determined in the presence of vehicle−RFU determined for sample with positive control inhibitor))*100.
Dose dilution series are prepared for compound enabling the testing of dose-response effects in the JAK2 assay and the calculation of the IC50 for the compound. Each compound is routinely tested at concentration of 20 μM followed by a 1/5 serial dilution, 10 points in a final concentration of 1% DMSO. When potency of compound series increases, more dilutions are prepared and/or the top concentration are lowered (e.g. 5 μM, 1 μM). […]

[2] = target: T2, Recombinant human JAK3 catalytic domain (Homo sapiens, UniProt P52333); assay: JAK3 inhibition assay; format: biochemical
T2 construct: Recombinant human JAK3 catalytic domain (amino acids 781-1124; catalog number PV3855); purchased Invitrogen PV3855
T2 sequence (P52333 781-1124): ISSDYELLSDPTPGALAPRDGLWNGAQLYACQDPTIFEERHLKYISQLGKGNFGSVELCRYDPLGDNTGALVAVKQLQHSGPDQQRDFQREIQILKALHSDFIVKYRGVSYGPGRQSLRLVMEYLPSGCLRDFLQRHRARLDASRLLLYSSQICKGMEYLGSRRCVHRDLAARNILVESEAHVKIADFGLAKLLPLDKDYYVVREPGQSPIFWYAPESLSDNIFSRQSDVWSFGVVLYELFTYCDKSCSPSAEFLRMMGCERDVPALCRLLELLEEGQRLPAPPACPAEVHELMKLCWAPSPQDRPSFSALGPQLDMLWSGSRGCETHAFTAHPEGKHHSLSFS
Experimental: Recombinant human JAK3 catalytic domain (amino acids 781-1124; catalog number PV3855) was purchased from Invitrogen. 0.5 ng JAK3 protein was incubated with 2.5 μg polyGT substrate (Sigma catalog number P0275) in kinase reaction buffer (25 mM Tris pH 7.5, 0.5 mM EGTA, 10 mM MgCl2, 2.5 mM DTT, 0.5 mM Na3VO4, 5 mM b-glycerolphosphate, 0.01% Triton X-100, 1 μM non-radioactive ATP, […] ^33P-gamma-ATP (GE Healthcare, catalog number AH9968) final concentrations) with or without 5 μL containing test compound or vehicle (DMSO, 1% final concentration), in a total volume of 25 μL, in a polypropylene 96-well plate (Greiner, V-bottom). After 45 min at 30° C., reactions were stopped by adding 25 μL/well of 150 mM phosphoric acid. All of the terminated kinase reaction was transferred to prewashed (75 mM phosphoric acid) 96 well filter plates (Perkin Elmer catalog number 6005177) using a cell harvester (Perkin Elmer). Plates were washed 6 times with 300 μL per well of a 75 mM phosphoric acid solution and the bottom of the plates was sealed. 40 μL/well of Microscint-20 was added, the top of the plates was sealed and readout was performed using the Topcount (Perkin Elmer). Kinase activity was calculated by subtracting counts per min (cpm) obtained in the presence of a positive control inhibitor (10 μM staurosporine) from cpm obtained in the presence of vehicle. The ability of a test compound to inhibit this activity was determined as:
as §1
Dose dilution series were prepared for the compounds enabling the testing of dose-response effects in the JAK3 assay and the calculation of the IC50 for each compound. Each compound was routinely tested at concentration of 20 μM followed by a 1/5 serial dilution, 10 points in a final concentration of 1% DMSO. When potency of compound series increased, more dilutions were prepared and/or the top concentration was lowered (e.g. 5 μM, 1 μM).

[3] = Illustrative Compounds of the invention (Table VII)
[4] = Illustrative Compounds of the invention (Table IX)

T1 sequence (O60674 808-1132): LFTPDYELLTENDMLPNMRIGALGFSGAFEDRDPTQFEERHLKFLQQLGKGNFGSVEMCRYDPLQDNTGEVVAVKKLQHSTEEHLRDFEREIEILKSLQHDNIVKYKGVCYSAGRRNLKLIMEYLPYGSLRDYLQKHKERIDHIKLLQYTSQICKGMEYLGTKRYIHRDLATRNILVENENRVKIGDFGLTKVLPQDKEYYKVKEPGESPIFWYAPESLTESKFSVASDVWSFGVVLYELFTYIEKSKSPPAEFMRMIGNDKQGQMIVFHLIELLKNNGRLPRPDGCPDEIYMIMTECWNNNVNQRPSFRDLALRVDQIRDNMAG

Row | Structure (SMILES) | IC50 [1, 3] | IC50 [2, 4] | IC50 ([1]; Comparative Compounds (Table VIII)) | IC50 ([2]; Comparative Compounds (Table X))
1 | CCc1cc(S(C)(=O)=O)ncc1N(C)c1cc(NC(=O)C2CC2)c2ncn(C)c2c1 [Cpd 18, N-[6-[(4-ethyl-6-methylsulfonyl-3-pyridyl)-methyl-amino]-1-methyl-benzimidazol-4-yl]cyclopropanecarboxamide] | 0.1 to 50 nM | 100 to 500 nM |  | 
2 | Cc1cc(S(C)(=O)=O)cc(F)c1N(C)c1cc(NC(=O)C2CC2)c2ncn(C)c2c1 [Cpd 19, N-[6-(2-fluoro-N,6-dimethyl-4-methylsulfonyl-anilino)-1-methyl-benzimidazol-4-yl]cyclopropanecarboxamide] | 0.1 to 50 nM | 50 to 100 nM |  | 
3 | CCc1cc(C(N)=O)ncc1N(C)c1cc(NC(=O)C2CC2)c2ncn(C)c2c1 [Cpd 24, 5-((4-(cyclopropanecarboxamido)-1-methyl-1H-benzo[d]imidazol-6-yl)(methyl)amino)-4-ethylpicolinamide] | 0.1 to 50 nM | 100 to 500 nM |  | 
4 | Cc1cc(S(C)(=O)=O)ccc1N(C)c1cc(NC(=O)[C@H]2C[C@H]2F)c2ncn(C)c2c1 [Cpd 26, (1R,2R)-N-[6-(N,2-dimethyl-4-methylsulfonyl-anilino)-1-methyl-benzimidazol-4-yl]-2-fluoro-cyclopropanecarboxamide] | 50 to 100 nM | 100 to 500 nM |  | 
5 | CCc1cc(S(C)(=O)=O)ncc1Oc1cc(NC(=O)C2CC2)c2ncn(C)c2c1 [Cpd 29, N-[6-[(4-ethyl-6-methylsulfonyl-3-pyridyl)oxy]-1-methyl-benzimidazol-4-yl]cyclopropanecarboxamide] | 100 to 500 nM | > 500 nM |  | 
6 | CNc1cc(Oc2cnc(C#N)cc2C)cc2c1ncn2C [Cpd 34, 4-methyl-5-[3-methyl-7-(methylamino)benzimidazol-5-yl]oxy-pyridine-2-carbonitrile] | > 500 nM | > 500 nM |  | 
7 | Cc1cc(C#N)ncc1Oc1cc(NC(=O)N2CC(O)C2)c2ncn(C)c2c1 [Cpd 36, N-[6-[(6-cyano-4-methyl-3-pyridyl)oxy]-1-methyl-benzimidazol-4-yl]-3-hydroxy-azetidine-1-carboxamide] | > 500 nM | > 500 nM |  | 
8 | Cc1cc(C#N)ncc1Oc1cc(NC(=O)NC(C)C)c2ncn(C)c2c1 [Cpd 38, 1-[6-[(6-cyano-4-methyl-3-pyridyl)oxy]-1-methyl-benzimidazol-4-yl]-3-isopropyl-urea] | 100 to 500 nM | > 500 nM |  | 
9 | CN(c1cc2c(cn1)ncn2C)c1ccc(C#N)cc1F [D, reference compound] |  |  | > 500 nM | > 500 nM

Now from value to molecule:

Row | IC50 [1, 3] | IC50 [2, 4] | IC50 ([1]; Comparative Compounds (Table VIII)) | IC50 ([2]; Comparative Compounds (Table X)) | Structure (SMILES)
10 | 50 to 100 nM | > 500 nM |  |  | Cc1cc(C#N)ncc1Oc1cc(NC(=O)[C@H]2C[C@H]2F)c2ncn(C)c2c1 [Cpd 20, (1R,2R)-N-[6-[(6-cyano-4-methyl-3-pyridyl)oxy]-1-methyl-benzimidazol-4-yl]-2-fluoro-cyclopropanecarboxamide]
11 | 0.1 to 50 nM | 50 to 100 nM |  |  | Cc1cc(C#N)nc(F)c1N(C)c1cc(NC(=O)[C@H]2C[C@H]2F)c2ncn(C)c2c1 [Cpd 21, (1R,2R)-N-[6-[(6-cyano-2-fluoro-4-methyl-3-pyridyl)-methyl-amino]-1-methyl-benzimidazol-4-yl]-2-fluoro-cyclopropanecarboxamide]
12 | 0.1 to 50 nM | 100 to 500 nM |  |  | Cc1cnc(C#N)c(F)c1N(C)c1cc(NC(=O)[C@H]2C[C@H]2F)c2ncn(C)c2c1 [Cpd 22, (1R,2R)-N-[6-[(2-cyano-3-fluoro-5-methyl-4-pyridyl)-methyl-amino]-1-methyl-benzimidazol-4-yl]-2-fluoro-cyclopropanecarboxamide]
13 | 50 to 100 nM | > 500 nM |  |  | Cc1cc(C#N)ncc1Oc1cc(NC(=O)C2CC2)c2ncn(C)c2c1 [Cpd 23, N-[6-[(6-cyano-4-methyl-3-pyridyl)oxy]-1-methyl-benzimidazol-4-yl]cyclopropanecarboxamide]
14 | 0.1 to 50 nM | 100 to 500 nM |  |  | CCc1cc(C(N)=O)ncc1N(C)c1cc(NC(=O)[C@H]2C[C@H]2F)c2ncn(C)c2c1 [Cpd 25, 4-ethyl-5-((4-((1R,2R)-2-fluorocyclopropanecarboxamido)-1-methyl-1H-benzo[d]imidazol-6-yl)(methyl)amino)picolinamide]
15 | 100 to 500 nM | 100 to 500 nM |  |  | CCS(=O)(=O)c1ccc(N(C)c2cc(NC(=O)[C@H]3C[C@H]3F)c3ncn(C)c3c2)c(C)c1 [Cpd 27, (1R,2R)-N-[6-(4-ethylsulfonyl-N,2-dimethyl-anilino)-1-methyl-benzimidazol-4-yl]-2-fluoro-cyclopropanecarboxamide]
16 | > 500 nM | > 500 nM |  |  | Cc1cc(C#N)ncc1Oc1cc(N)c2ncn(C)c2c1 [Cpd 28, 5-(7-amino-3-methyl-benzimidazol-5-yl)oxy-4-methyl-pyridine-2-carbonitrile]
17 | 50 to 100 nM | > 500 nM |  |  | Cc1cc(C(N)=O)ncc1Oc1cc(NC(=O)[C@H]2C[C@H]2F)c2ncn(C)c2c1 [Cpd 32, 5-[7-[[(1R,2R)-2-fluorocyclopropanecarbonyl]amino]-3-methyl-benzimidazol-5-yl]oxy-4-methyl-pyridine-2-carboxamide]
18 | > 500 nM | > 500 nM |  |  | Cc1cc(C#N)ncc1Oc1cc(N(C)C)c2ncn(C)c2c1 [Cpd 35, 5-[7-(dimethylamino)-3-methyl-benzimidazol-5-yl]oxy-4-methyl-pyridine-2-carbonitrile]
19 | > 500 nM | > 500 nM |  |  | Cc1cc(C#N)ncc1Oc1cc(NC(=O)N2CCOCC2)c2ncn(C)c2c1 [Cpd 37, N-[6-[(6-cyano-4-methyl-3-pyridyl)oxy]-1-methyl-benzimidazol-4-yl]morpholine-4-carboxamide]
